Source: patent US20240352029A1, “CDK Inhibitors And Their Use As Pharmaceuticals” (Prelude Therapeutics Incorporated, priority 2023, published 2024)

Columns and labels:
CDK4/Cyclin D1 = target: T1, CDK4/Cyclin D1 (Homo sapiens, UniProt P11802); experiment: CDK4/CyclinD1 enzymatic activity assay (TR-FRET); assay type: biochemical; conditions: ATP 2 mM final, read-out: CDK4_D1 IC50
T1 construct: purchased ProQinase; host or cells: insect cell
Protocol: CDK4/CyclinD1 Enzymatic Activity Assay
(§1) The inhibitory activity of compounds was evaluated in vitro using TR-FRET assay with white 384-well low volume microplate (Greiner Bio-One). CDK4/Cyclin D1 catalyzed phosphorylation of peptide in the presence and absence of compounds was measured and used in IC50 determination. Recombinant protein complex CDK4/Cyclin D1, expressed from insect cell, was purchased from ProQinase. Testing compounds were dissolved in DMSO at 1 mM and tested in 9-dose IC50 mode. The reaction mixture was prepared by mixing CDK4/CyclinD1 (1 nM final), ULight-4E-BP1 (100 nM final, Perkinelmer, TRF0128-D), and ATP (2 mM final) in assay buffer (20 mM of HEPES pH 7.4, 1 mM of EGTA, 0.05% BSA, 0.005% Tween 20, and 1 mM TCEP). The compound of interest in DMSO was added to each well in 3-fold serial dilution by dispenser (TECAN D300E) to make a 9.9 μL of reaction mixture. After 20 minutes preincubation at room temperature, 0.1 μL MgCl2 (10 mM final) was added to initiate the reaction. Following a 45 minutes incubation at 37° C., the reaction was stopped by addition of 2 μL of quenching buffer consisting of Lance detection buffer (Perkinelmer CR97-100C), LANCE Ultra Europium-anti-P-4E-BP1 (Perkinelmer, TRF0216-D), EDTA, and incubate at room temperature for additional 60 minutes in dark. The reaction signal was measured by Envision multimode plate reader (PerkinElmer, 2102-0010). IC50 values were determined by fitting the data to the standard 4 parameters with Hill Slope using GraphPad Prism software.

OVCAR3 p-RB = experiment: pRB ICW assay in OVCAR3 cells; assay type: cell-based; conditions: Homo sapiens, OVCAR-3, 2 hours incubation with compound
Protocol: pRB ICW Assay in OVCAR3 Cells
OVCAR3 cells were maintained in RPMI (Corning, Catalog #: 10-040-CV) supplemented with 10% v/v FBS (Gibco, Catalog #: 26140-079), 1% v/v Penicillin Streptomycin (Gibco, Catalog #15140-122.) OVCAR3 cells grown at log phase were trypsinized, counted, and resuspended in fresh medium to reach a final density of 6.7e4 cells/ml and 75 μL of culture were dispensed into a 384-well plate (Falcon, cat #353962) using Multidrop Combi dispenser (Thermo Scientific). The next day, compounds were dispensed as a 9-point, ½ log serial dilution using a Tecan digital dispenser (D300e), and cells were incubated with compound for 2 hours in a humidified incubator at 37° C. A reference compound at a final concentration of 10 μM was used as a control for maximum inhibition. Each compound was tested in duplicates in each experiment. At the end of the incubation, 25 μl of 16% paraformaldehyde (Electron Microscopy, cat #15710) was slowly added to each well and the plate was incubated at room temperature (RT) for 30 minutes to fix cells. Cells were then permeabilized by incubating with 50 μl/well of wash buffer (1×PBS with 0.1% Triton X-100) 5×5 minutes, followed by 1 hour blocking with 30 μl/well of Odyssey blocking buffer (Li—COR, cat #927-40000), all at RT. Anti-phosphor RB antibody (Cell signaling 8516S) was diluted 1:1000 in Odyssey blocking buffer and 20 μl was added to all wells and incubated overnight in 4° C. with gently rocking. The next day, cells were washed 5×5 min with 50 μl/well of wash buffer, followed with 1 hour incubation with secondary antibody and DRAQ5 diluted in Odyssey blocking buffer (1:500 dilution for secondary antibody and 1:2000 dilution for DRAQ5), 5×5 min washes, and one last wash with water. Plates were dried in 37° C. oven for 5 min and scanned using Li—COR Odyssey CLx imaging system to acquire intensities at 700 and 800 nm channels.

CDK2/Cyclin E2 = CDK2/Cyclin E2 (Homo sapiens, UniProt P24941); experiment: CDK2/CyclinE2 enzymatic activity assay (TR-FRET); assay type: biochemical; conditions: ATP 1 mM final, read-out: CDK2_E1 IC50
Protocol: CDK2/CyclinE2 Enzymatic Activity Assay
as §1, with “Bio-One). CDK2/Cyclin E2” for “Bio-One). CDK4/Cyclin D1”, “complex CDK2/Cyclin E2,” for “complex CDK4/Cyclin D1,”, “mixing CDK2/CyclinE2” for “mixing CDK4/CyclinD1”, “ULight-4E-BP1 (50” for “ULight-4E-BP1 (100”, “ATP (1” for “ATP (2”

T1 sequence (P11802 whole entry): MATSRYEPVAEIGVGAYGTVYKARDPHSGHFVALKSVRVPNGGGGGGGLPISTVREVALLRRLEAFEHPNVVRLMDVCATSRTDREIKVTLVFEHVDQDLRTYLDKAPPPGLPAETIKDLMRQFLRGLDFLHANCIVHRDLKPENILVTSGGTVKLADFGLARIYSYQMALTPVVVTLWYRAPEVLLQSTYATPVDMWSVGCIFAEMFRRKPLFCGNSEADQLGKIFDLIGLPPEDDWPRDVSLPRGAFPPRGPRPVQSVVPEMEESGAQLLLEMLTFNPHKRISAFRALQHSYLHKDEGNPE
T1 sequence (P24385 whole entry partner): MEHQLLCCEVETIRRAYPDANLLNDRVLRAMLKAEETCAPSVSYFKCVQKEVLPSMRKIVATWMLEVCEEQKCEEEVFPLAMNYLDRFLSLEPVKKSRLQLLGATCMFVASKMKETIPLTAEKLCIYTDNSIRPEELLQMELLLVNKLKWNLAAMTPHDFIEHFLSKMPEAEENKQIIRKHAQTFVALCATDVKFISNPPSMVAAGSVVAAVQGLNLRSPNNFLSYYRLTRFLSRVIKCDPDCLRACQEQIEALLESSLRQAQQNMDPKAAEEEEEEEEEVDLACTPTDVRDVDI

## C[C@@H]1CN(S(=O)(=O)c2cn(C)cn2)CC[C@@H]1Nc1ncc(C(F)(F)F)c(-c2cc3c(s2)C(C)(C)NC3=O)n1 [Example 8, 6,6-dimethyl-2-(2-(((3R,4S)-3-methyl-1-((1-methyl-1H-imidazol-4-yl)sulfonyl)piperidin-4-yl)amino)-5-(trifluoromethyl)pyrimidin-4-yl)-5,6-dihydro-4H-thieno[2,3-c]pyrrol-4-one]
CDK4/Cyclin D1
  IC50: ≤ 100 nM
OVCAR3 p-RB
  IC50: ≤ 100 nM
CDK2/Cyclin E2
  IC50: ≤ 100 nM

## C[C@@H]1CN(S(=O)(=O)c2cn[nH]c2)CC[C@@H]1Nc1ncc(C(F)(F)F)c(-c2cc3c(s2)C(C)(C)NC3=O)n1 [Example 9, 2-(2-(((3R,4S)-1-((1H-pyrazol-4-yl)sulfonyl)-3-methylpiperidin-4-yl)amino)-5-(trifluoro-methyl)pyrimidin-4-yl)-6,6-dimethyl-5,6-dihydro-4H-thieno[2,3-c]pyrrol-4-one]
CDK4/Cyclin D1
  IC50: ≤ 100 nM
OVCAR3 p-RB
  IC50: ≤ 100 nM
CDK2/Cyclin E2
  IC50: ≤ 100 nM

## C[C@@H]1CN(S(=O)(=O)c2c[nH]cn2)CC[C@@H]1Nc1ncc(C(F)(F)F)c(-c2cc3c(s2)C(C)(C)NC3=O)n1 [Example 10, 2-(2-(((3R,4S)-1-((1H-imidazol-4-yl)sulfonyl)-3-methylpiperidin-4-yl)amino)-5-(trifluoro-methyl)pyrimidin-4-yl)-6,6-dimethyl-5,6-dihydro-4H-thieno[2,3-c]pyrrol-4-one]
CDK4/Cyclin D1
  IC50: ≤ 100 nM
OVCAR3 p-RB
  IC50: ≤ 100 nM
CDK2/Cyclin E2
  IC50: ≤ 100 nM

## Cn1cc(S(=O)(=O)N2CCC(Nc3ncc(C(F)(F)F)c(-c4cc5c(s4)C(C)(C)NC5=O)n3)CC2)cn1 [Example 11, 6,6-dimethyl-2-(2-((1-((1-methyl-1H-pyrazol-4-yl)sulfonyl)piperidin-4-yl)amino)-5-(trifluoro-methyl)pyrimidin-4-yl)-5,6-dihydro-4H-thieno[2,3-c]pyrrol-4-one]
CDK4/Cyclin D1
  IC50: ≤ 100 nM
OVCAR3 p-RB
  IC50: ≤ 100 nM
CDK2/Cyclin E2
  IC50: ≤ 100 nM

## CC1(C)NC(=O)c2cc(-c3nc(NC4CCN(S(C)(=O)=O)CC4)ncc3C(F)(F)F)sc21 [Example 12, 6,6-dimethyl-2-(2-((1-(methylsulfonyl)piperidin-4-yl)amino)-5-(trifluoro-methyl)pyrimidin-4-yl)-5,6-dihydro-4H-thieno[2,3-c] pyrrol-4-one]
CDK4/Cyclin D1
  IC50: ≤ 100 nM
OVCAR3 p-RB
  IC50: ≤ 100 nM
CDK2/Cyclin E2
  IC50: ≤ 100 nM

## CC1(C)NC(=O)c2cc(-c3nc(N[C@@H]4CCN(S(C)(=O)=O)C[C@H]4F)ncc3C(F)(F)F)sc21 [Example 13, 2-(2-(((3R,4R)-3-fluoro-1-(methylsulfonyl)piperidin-4-yl)amino)-5-(trifluoro-methyl)pyrimidin-4-yl)-6,6-dimethyl-5,6-dihydro-4H-thieno[2,3-c]pyrrol-4-one]
CDK4/Cyclin D1
  IC50: ≤ 100 nM
OVCAR3 p-RB
  IC50: ≤ 100 nM
CDK2/Cyclin E2
  IC50: ≤ 100 nM

## CC1(C)NC(=O)c2cc(-c3nc(N[C@H]4CCN(S(C)(=O)=O)C[C@H]4F)ncc3C(F)(F)F)sc21 [Example 14, 2-(2-(((3R,4S)-3-fluoro-1-(methylsulfonyl)piperidin-4-yl)amino)-5-(trifluoro-methyl)pyrimidin-4-yl)-6,6-dimethyl-5,6-dihydro-4H-thieno[2,3-c]pyrrol-4-one]
CDK4/Cyclin D1
  IC50: ≤ 100 nM
OVCAR3 p-RB
  IC50: ≤ 100 nM
CDK2/Cyclin E2
  IC50: ≤ 100 nM

## Cn1cnc(S(=O)(=O)N2CC[C@H](Nc3ncc(C(F)(F)F)c(-c4cc5c(s4)C(C)(C)NC5=O)n3)[C@H](F)C2)c1 [Example 15, 2-(2-(((3R,4S)-3-fluoro-1-((1-methyl-1H-imidazol-4-yl)sulfonyl)piperidin-4-yl)amino)-5-(trifluoro-methyl)pyrimidin-4-yl)-6,6-dimethyl-5,6-dihydro-4H-thieno[2,3-c]pyrrol-4-one]
CDK4/Cyclin D1
  IC50: ≤ 100 nM
OVCAR3 p-RB
  IC50: ≤ 100 nM
CDK2/Cyclin E2
  IC50: ≤ 100 nM

## Cn1cc(S(=O)(=O)N2CC[C@@H](Nc3ncc(C(F)(F)F)c(-c4cc5c(s4)C(C)(C)NC5=O)n3)[C@H](F)C2)cn1 [Example 16, 2-(2-(((3R,4R)-3-fluoro-1-((1-methyl-1H-pyrazol-4-yl)sulfonyl)piperidin-4-yl)amino)-5-(trifluoro-methyl)pyrimidin-4-yl)-6,6-dimethyl-5,6-dihydro-4H-thieno[2,3-c]pyrrol-4-one]
CDK4/Cyclin D1
  IC50: ≤ 100 nM
OVCAR3 p-RB
  IC50: ≤ 100 nM
CDK2/Cyclin E2
  IC50: ≤ 100 nM

## CS(=O)(=O)N1CCC(Nc2ncc(C(F)(F)F)c(-c3cc4c(s3)CNC4=O)n2)CC1 [Example 17, 2-(2-((1-(methylsulfonyl)piperidin-4-yl)amino)-5-(trifluoromethyl)pyrimidin-4-yl)-5,6-dihydro-4H-thieno[2,3-c]pyrrol-4-one]
CDK4/Cyclin D1
  IC50: ≤ 100 nM
OVCAR3 p-RB
  IC50: ≤ 100 nM
CDK2/Cyclin E2
  IC50: ≤ 100 nM

## Cn1cc(S(=O)(=O)N2CCC(Nc3ncc(C(F)(F)F)c(-c4cc5c(s4)CNC5=O)n3)CC2)cn1 [Example 20, 2-(2-((1-((1-methyl-1H-pyrazol-4-yl)sulfonyl)piperidin-4-yl)amino)-5-(trifluoromethyl)pyrimidin-4-yl)-5,6-dihydro-4H-thieno[2,3-c]pyrrol-4-one]
CDK4/Cyclin D1
  IC50: ≤ 100 nM
OVCAR3 p-RB
  IC50: ≤ 100 nM
CDK2/Cyclin E2
  IC50: ≤ 100 nM

## C[C@@H]1CN(S(=O)(=O)c2cnn(C)c2)CC[C@@H]1Nc1ncc(C(F)(F)F)c(-c2cc3c(s2)CNC3=O)n1 [Example 21, 2-(2-(((3R,4S)-3-methyl-1-((1-methyl-1H-pyrazol-4-yl)sulfonyl)piperidin-4-yl)amino)-5-(trifluoro-methyl)pyrimidin-4-yl)-5,6-dihydro-4H-thieno[2,3-c]pyrrol-4-one]
CDK4/Cyclin D1
  IC50: ≤ 100 nM
OVCAR3 p-RB
  IC50: ≤ 100 nM
CDK2/Cyclin E2
  IC50: ≤ 100 nM

## Cn1cc(S(=O)(=O)N2CCC(Nc3ncc(C(F)(F)F)c(-c4cc5c(s4)C(=O)NC5)n3)CC2)cn1 [Example 23, 2-(2-((1-((1-Methyl-1H-pyrazol-4-yl)sulfonyl)piperidin-4-yl)amino)-5-(trifluoromethyl)pyrimidin-4-yl)-4,5-dihydro-6H-thieno[2,3-c]pyrrol-6-one]
CDK4/Cyclin D1
  IC50: 100 to 500 nM
OVCAR3 p-RB
  IC50: 100 to 500 nM
CDK2/Cyclin E2
  IC50: ≤ 100 nM

## CS(=O)(=O)N1CCC(Nc2ncc(C(F)(F)F)c(-c3cc4c(s3)C(=O)NC4)n2)CC1 [Example 24, 2-(2-((1-(Methylsulfonyl)piperidin-4-yl)amino)-5-(trifluoromethyl)pyrimidin-4-yl)-4,5-dihydro-6H-thieno[2,3-c]pyrrol-6-one]
CDK4/Cyclin D1
  IC50: > 500 nM
OVCAR3 p-RB
  IC50: > 500 nM
CDK2/Cyclin E2
  IC50: ≤ 100 nM
